Calls of active or inactive are those of the source. The rule behind the calls is not given here.

This note sets out measurements from ChEMBL document CHEMBL3734699, “A new cerebroside from the fruiting bodies of Hericium erinaceus and its applicability to cancer treatment” (Bioorg Med Chem Lett, 2015).

Data set [1] relates to HUVEC. As to the kind of experiment: Antiangiogenesis activity in HUVEC assessed as inhibition of VEGF-induced tube formation at 25 uM. It is filed as functional, cell-based. The note with it: Homo sapiens.
For data set [2], the target named is Acetylcholinesterase (Homo sapiens) (UniProt P22303). As to the kind of experiment: Inhibition of acetylcholine esterase (unknown origin) up to 200 uM by Ellman's colorimetric method. (Ellman's reagent forms a yellow product with free thiols.)
Chain of Acetylcholinesterase (Homo sapiens) (P22303 whole entry): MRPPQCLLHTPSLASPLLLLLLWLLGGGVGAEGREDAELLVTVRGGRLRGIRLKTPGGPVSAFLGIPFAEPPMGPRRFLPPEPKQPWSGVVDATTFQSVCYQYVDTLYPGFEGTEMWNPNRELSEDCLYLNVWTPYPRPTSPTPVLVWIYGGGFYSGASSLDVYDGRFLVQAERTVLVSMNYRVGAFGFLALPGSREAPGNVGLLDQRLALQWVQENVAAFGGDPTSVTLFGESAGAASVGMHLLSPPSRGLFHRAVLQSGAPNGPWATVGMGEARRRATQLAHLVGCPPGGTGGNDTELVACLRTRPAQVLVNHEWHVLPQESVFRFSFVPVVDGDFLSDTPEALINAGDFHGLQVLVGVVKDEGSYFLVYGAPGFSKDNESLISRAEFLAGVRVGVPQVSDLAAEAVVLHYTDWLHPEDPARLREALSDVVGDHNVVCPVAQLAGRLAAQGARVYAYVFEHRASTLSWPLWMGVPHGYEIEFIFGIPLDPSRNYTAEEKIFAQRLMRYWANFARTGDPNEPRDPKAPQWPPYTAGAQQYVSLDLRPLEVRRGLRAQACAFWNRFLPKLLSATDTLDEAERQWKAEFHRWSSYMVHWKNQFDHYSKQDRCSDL
In data set [3] the test system is LLC-PK1. The data set can be described thus: Renoprotective activity in pig LLC-PK1 cells assessed as inhibition of cisplatin-induced nephrotoxicity at 100 to 200 uM preincubated for 2 hrs followed by cisplatin challenge measured after 24 hrs by MTT assay. It is filed as functional, cell-based. Particulars: Sus scrofa.
In data set [4] the test system is HUVEC. As to the kind of experiment: Cytotoxicity in HUVEC assessed as reduction in cell viability up to 50 uM. The note with it: human. It counts as cell-based.
Data set [5] is described as follows: Antioxidant activity of the compound assessed as DPPH radical scavenging activity by colorimetric method. It counts as physicochemical. In general terms: Loss of DPPH colour is used to gauge radical scavenging.
The test system of data set [6] is HUVEC. The data set can be described thus: Antiangiogenesis activity in HUVEC assessed as inhibition of VEGF-induced tube formation at 50 uM. It counts as functional, cell-based. Particulars: Homo sapiens.

As to `CC(C)=CCC[C@](C)(O[C@@H]1O[C@H](CO)[C@@H](O)[C@H](O)[C@H]1O)[C@H]1CC[C@]2(C)[C@@H]1[C@H](O)C[C@@H]1[C@@]3(C)CC[C@H](O)C(C)(C)[C@@H]3CC[C@]12C`, the result in data set [1] was Active.

With `CCCCCCCCCCCCCCCC[C@@H](O)C(=O)N[C@@H](CO[C@@H]1O[C@H](CO)[C@@H](O)[C@H](O)[C@H]1O)[C@H](O)/C=C/CC/C=C(\C)CCCCCC`, the inhibition entry in data set [2] is “inactive”. Besides, the outcome in data set [3], in data set [6] and in data set [1] was Active. The Activity result is “Non-toxic” in data set [4] and “Not Active” in data set [5].
